Measurements as given in PubChem BioAssay AID1549 (Sanford-Burnham Center for Chemical Genomics, 2009).
Active and inactive are the calls of the source. How the calls were made is not given here.

What follows are compounds tested against Influenza A virus M2 proton channel (A/TW/4845/1999 H1N1) (assay: M2 proton channel binding, NMR based, influenza A virus H1N1 strain (AID 1549)). Conditions: NMR binding screen, M2 protein.

Row | Compound | Kd
1 | O=Cc1c(N2CCOCC2)nc2ccccn2c1=O | > 4 mM (inactive)
2 | OC12CC3CC(C1)C1(NCCS1)C(C3)C2 (stereo not drawn) | > 4 mM (inactive)
3 | Cc1cc(C)n2nc(NCc3ccccc3)nc2n1 | > 4 mM (inactive)
4 | CC1(C)CC2C1CC[C@]1(C)CCC3C(C(=O)O)CC(=O)O[C@@]32C1 (stereo partly drawn) | > 4 mM (inactive)
5 | O=C(O)C1CC(=O)N(Cc2ccco2)C1 (stereo not drawn) | > 4 mM (inactive)
6 | Cc1c(C(=O)Nc2ccccc2)sc(N)c1C(N)=O | > 4 mM (inactive)
7 | COc1ccc(Cl)c(S(=O)(=O)N2CCCC2)c1 | > 4 mM (inactive)
8 | Cc1ccc(SCc2cc(=O)n3[nH]cnc3n2)cc1 | > 4 mM (inactive)
9 | Cc1nn2c3ccccc3nc2n(Cc2ccccc2)c1=O | > 4 mM (inactive)
10 | CC12CCCC(O)(C1)C1CC(C)(C)C1CC2 (stereo not drawn) | > 4 mM (inactive)
11 | Nc1scc[n+]1CC(=O)[O-] | > 4 mM (inactive)
12 | S=c1[nH]nc(-c2cccnc2)n1C1CCCCC1 | > 4 mM (inactive)
13 | O=C1CN(C(=O)CN2CCOCC2)c2ccccc2N1 | > 4 mM (inactive)
14 | CCn1nccc1C(=O)Nc1ccc(Cl)cc1Cl | > 4 mM (inactive)
15 | OC1CCN(Cc2ccc[nH]2)CC1 | > 4 mM (inactive)
16 | O=C1NCCCC1C(=O)N1CCCCC1 (stereo not drawn) | > 4 mM (inactive)
17 | Cc1[nH]c2ccccc2c(=O)c1CO | > 4 mM (inactive)
18 | Cn1c(SCC(=O)NCCO)nc2ccccc2c1=O | > 4 mM (inactive)
19 | CC12CC[C@H](CC1=O)C2(C)C | > 4 mM (inactive)
20 | OCC1CCN(Cc2ccccc2)CC1 | > 4 mM (inactive)
21 | CCOC(=O)c1csc(C2COc3ccccc3O2)n1 (stereo not drawn) | > 4 mM (inactive)
22 | CC(C)c1ccccc1NC(=O)c1cnccn1 | > 4 mM (inactive)
23 | COC(=O)N1CCN(c2ccc(C(C)=O)cc2)CC1 | > 4 mM (inactive)
24 | COc1cc(O)c(C(C)=O)c(OC)c1 | > 4 mM (inactive)

Row | Compound | Kd
25 | Nc1ncnc(NCCO)c1[N+](=O)[O-] | > 4 mM (inactive)
26 | OCc1ccc(N2CCOCC2)cc1 | > 4 mM (inactive)
27 | Cc1[nH]c2ccccc2c1C(=O)CSc1ncn[nH]1 | > 4 mM (inactive)
28 | COC(=O)CC1C(C)(C)C(OC(C)=O)[C@@H]2[C@@H](OC(C)=O)[C@]34O[C@@]2(O)[C@]1(C)C3CC[C@]1(C)C4=CC(=O)O[C@H]1c1ccoc1 (stereo partly drawn) | > 4 mM (inactive)
29 | O=C(c1ccccc1-c1ccccc1)N1CCOCC1 | > 4 mM (inactive)
30 | COC(=O)CSc1nc(N)cc(=O)[nH]1 | > 4 mM (inactive)
31 | COc1cc([C@@H]2c3cc4c(cc3[C@H](O)[C@H]3COC(=O)[C@H]23)OCO4)cc(OC)c1OC | > 4 mM (inactive)
32 | O=C(O)Cn1cnc2ccccc2c1=O | > 4 mM (inactive)
33 | Nc1nnc(SCc2ccc3c(c2)OCO3)s1 | > 4 mM (inactive)
34 | O=C(O)c1ccnc2ccccc12 | > 4 mM (inactive)
35 | CSc1nc(-c2ccccc2)ccc1C(N)=O | > 4 mM (inactive)
36 | CC(=O)O[C@]1(C)CC[C@@]23CC1C(C)(C)[C@@H]2CC[C@H]3C | > 4 mM (inactive)
37 | c1ccc(NCc2nc(-c3ccccc3)no2)cc1 | > 4 mM (inactive)
38 | COc1ccc2c(c1)OC/C(=C/c1ccc(O)c(O)c1)C2=O | > 4 mM (inactive)
39 | O=S1(=O)CCC(NCc2ccccc2)C1 (stereo not drawn) | > 4 mM (inactive)
40 | COC(=O)C1Cc2ccccc2N1 (stereo not drawn) | > 4 mM (inactive)
41 | COc1ccc(-c2oc3ccccc3c(=O)c2O)cc1OC | > 4 mM (inactive)
42 | C(=N\c1nccs1)/c1cccnc1 | > 4 mM (inactive)
43 | Nc1cc(F)cc(F)c1 | > 4 mM (inactive)
44 | COc1cccc(S(=O)(=O)Nc2cccnc2)c1 | > 4 mM (inactive)
45 | O=C(O)CCC(=O)Nc1nccs1 | > 4 mM (inactive)
46 | O=C(Nc1ccon1)c1ccc(Cl)s1 | > 4 mM (inactive)
47 | Cc1oc(S(=O)(=O)N2CCCCC2)cc1C(=O)O | > 4 mM (inactive)
48 | Cc1cccc(NC(=O)CN2C(=O)CNC2=O)c1 | > 4 mM (inactive)
